Experiment [1] deals with T1, nociceptin receptor ORL1 (Homo sapiens, UniProt P41146).
T1 construct: expressed in transfected cells
Kind of experiment: Nociceptin receptor binding inhibition assay ([125I]Tyr14-Nociceptin, SPA, CHO/ORL1 membranes). To be noted: 50 pM [125I]Tyr14-Nociceptin, CHO/ORL1 membrane, 37° C. for 60 minutes; read-out: IC50 value, nociceptin receptor binding inhibition action. On the procedure: Pharmacological Test Example 1 (Nociceptin Receptor Binding Inhibition Assay)
cDNA which codes a human nociceptin receptor gene was cloned into an expression vector pCR3 (Invitrogen) to prepare pCR3/ORL1. Next, pCR3/ORL1 was transfected in CHO cells using a transfectam (Nippongene) to obtain a stable expression strain (CHO/ORL1 cells) having resistance against 1 mg/ml G418. Membrane fractions were prepared from this stable expression strain to carry out a receptor binding assay.
The membrane of 11 μg, 50 pM [^125I] Tyr^14-Nociceptin (Amersham Pharmacia), 1 mg Wheatgerm agglutinin SPA beads (PVT based; Amersham Pharmacia) and each test compound were suspended in an NC buffer (50 mM Hepes, 10 mM sodium chloride, 1 mM magnesium chloride, 2.5 mM calcium chloride, 0.1% BSA, 0.025% bacitracin, pH 7.4) and incubated at 37° C. for 60 minutes, and then the radioactivity was determined. The binding activity to the nociceptin receptor was indicated by the 50% inhibition concentration (IC50 value) of [^125I]Tyr^14-Nociceptin binding by each compound of the present invention.

Experiment [2] has as its target T1, nociceptin receptor ORL1. Kind of experiment: Antagonism against nociceptin-elicited G protein activation (GTPγ[35S] binding, CHO/ORL1 membranes). In kind it is biochemical. To be noted: 50 nM nociceptin, 200 pM GTPγ[35S], CHO/ORL1 membrane, 25° C. for 150 minutes. On the procedure:
Pharmacological Test Example 2 (Antagonism Against Nociceptin-elicited G Protein Activation)
CHO cells which stably represented a nociceptin receptor ORL1 were used to investigate the action of each tested compound against nociceptin-elicited G protein activation. A membrane prepared from the CHO/ORL1 cells, 50 nM nociceptin, 200 pM GTPγ[^35S] (NEN), 1.5 mg Wheatgerm agglutinin SPA beads (Amersham Pharmacia) and each of the tested compounds were mixed in a GDP buffer (20 mM Hepes, 100 mM sodium chloride, 10 mM magnesium chloride, 1 mM EDTA, 5 μM GDP, pH 7.4) and incubated at 25° C. for 150 minutes, and then the radioactivity was determined. The antagonism against nociceptin-elicited G protein activation was shown by the 50% inhibition concentration (IC50 value) of each tested compound against GTPγ[^35S] binding.
On the technique in general: Binding of GTPγS marks nucleotide exchange on a G protein.

Structures can show the parent of a compound that is named as a salt.

T1 sequence (P41146 whole entry): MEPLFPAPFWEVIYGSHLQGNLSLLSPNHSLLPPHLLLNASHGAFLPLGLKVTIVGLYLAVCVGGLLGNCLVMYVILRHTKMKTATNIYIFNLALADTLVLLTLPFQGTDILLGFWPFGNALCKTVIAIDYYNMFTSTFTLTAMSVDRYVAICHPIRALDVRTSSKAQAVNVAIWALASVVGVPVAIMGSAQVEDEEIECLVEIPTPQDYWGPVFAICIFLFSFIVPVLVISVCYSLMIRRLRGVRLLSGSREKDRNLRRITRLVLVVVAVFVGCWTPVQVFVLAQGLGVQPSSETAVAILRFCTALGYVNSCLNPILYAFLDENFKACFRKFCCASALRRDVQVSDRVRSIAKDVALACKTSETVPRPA

As for `CCN1CCN(c2cc3[nH]c(C(=O)[C@]4(C)CC[C@@H](NC(=O)OC)CC4)nc3cc2Cl)C(C)C1` (single isomer, unassigned) [Example 1(2S*), 5-chloro-6-[4-ethyl-(2S*)-2-methylpiperazin-1-yl]-2-[(1,4-trans)-4-methoxycarbonylamino-1-methylcyclohexylcarbonyl]benzimidazole], the IC50 in experiment [1] was 0.51 nM; in experiment [2], 0.82 nM.
With `CCN1CCN(c2cc3[nH]c(C(=O)[C@]4(C)CC[C@@H](NC(=O)OC)CC4)nc3cc2C)C(C)C1` (single isomer, unassigned) [Example 2(2S*), 6-[4-ethyl-(2S*)-2-methylpiperazin-1-yl]-2-[(1,4-trans)-4-methoxycarbonylamino-1-methylcyclohexylcarbonyl]-5-methylbenzimidazole], the values for the IC50 in experiment [1] and in experiment [2] were 0.2 nM and 0.63 nM, respectively.
Take `COC(=O)N[C@H]1CC[C@](C)(C(=O)c2nc3cc(Cl)c(N4CCN(CCO)CC4C)cc3[nH]2)CC1` (single isomer, unassigned) [Example 6(2S*), 5-chloro-6-[4-(2-hydroxyethyl)-(2S*)-2-methylpiperazin-1-yl]-2-[(1,4-trans)-4-methoxycarbonylamino-1-methylcyclohexylcarbonyl]benzimidazole-fumaric acid salt]: the IC50 in experiment [1] came to 0.41 nM; in experiment [2], 0.92 nM.
For `COC(=O)N[C@H]1CC[C@](C)(C(=O)c2nc3cc(C)c(N4CCN(CCO)CC4C)cc3[nH]2)CC1` (single isomer, unassigned) [Example 11(2S*), 6-[4-(2-hydroxyethyl)-(2S*)-2-methylpiperazin-1-yl]-2-[(1,4-trans)-4-methoxycarbonylamino-1-methylcyclohexylcarbonyl]-5-methylbenzimidazole-fumaric acid salt] the same measures were 0.99 nM and 0.63 nM.
The corresponding values for `CCN1CCN(c2cc3[nH]c(C(=O)[C@]4(CC)CC[C@@H](NC(=O)OC)CC4)nc3cc2Cl)C(C)C1` (single isomer, unassigned) [Example 15(2S*), 5-chloro-2-[(1,4-trans)-1-ethyl-4-(methoxycarbonylamino)-cyclohexylcarbonyl]-6-[4-ethyl-(2S*)-2-methylpiperazin-1-yl]benzimidazole-fumaric acid salt] are 0.19 nM and 0.42 nM.
For `CCN1CCN(c2cc3[nH]c(C(=O)[C@]4(C)CC[C@@H](O)CC4)nc3cc2Cl)C(C)C1` (single isomer, unassigned) [Example 24(2S*), 5-chloro-6-[4-ethyl-(2S*)-2-methylpiperazin-yl]-2-[(1,4-trans)-4-hydroxy-1-methylcyclohexylcarbonyl]benzimidazole] the same measures were 2.1 nM and 2.8 nM.
Take `CCN1CCN(c2cc3[nH]c(C(=O)C4(C)CCN(C(C)=O)CC4)nc3cc2C)C(C)C1` (single isomer, unassigned) [Example 27(2S*), 2-(1-acetyl-4-methylpiperidinyl-4-carbonyl)-6-[4-ethyl-(2S*)-2-methylpiperazin-1-yl]-5-methylbenzimidazole]: the IC50 in experiment [1] was found to be 1.9 nM; in experiment [2], 1.5 nM.
For `CCN1CCN(c2cc3[nH]c(C(=O)[C@]4(CC)CC[C@@H](NC(=O)OC)CC4)nc3cc2C)C(C)C1` (single isomer, unassigned) [Example 47(2S*), 2-[(1,4-trans)-1-ethyl-4-(methoxycarbonylamino)-cyclohexylcarbonyl]-6-[4-ethyl-(2S*)-2-methylpiperazin-1-yl]-5-methylbenzimidazole-fumaric acid salt] the same measures were 0.22 nM and 0.36 nM.
With `CCN1CCN(c2cc3[nH]c(C(=O)N(C)C4CCCCC4)nc3cc2Cl)C(C)C1` (stereo not drawn) [Example 39(2S*)], in experiment [1], the IC50 turned out to be 29 nM.
Turning to `CCN1CCN(c2cc3[nH]c(C(=O)[C@]4(C)CC[C@@](C)(O)CC4)nc3cc2Cl)CC1` [Example 51, 5-chloro-2-[(1,4-trans)-1,4-dimethyl-4-hydroxycyclohexylcarbonyl]-6-(4-ethylpiperazin-1-yl) benzimidazole], the IC50 is 1.4 nM in experiment [1] and 0.65 nM in experiment [2].
As to `COC[C@]1(C(=O)c2nc3cc(C)c(N4CCN5CCC[C@H]5C4)cc3[nH]2)CC[C@](C)(O)CC1` [Example 53, 6-[(S)-1,4-ziazabicyclo[4.3.0]nonan-4-yl]-2-[(1,4-trans)-4-hydroxy-1-methoxymethyl-4-methylcyclohexylcarbonyl]-5-methylbenzimidazole], the IC50 in experiment [1] was 0.55 nM; in experiment [2] it was 1 nM.

The IC50 is the concentration that gives 50% inhibition.

For the origin of these results see US7125877B2, “Benzimidazole derivatives” (Banyu Pharmaceutical Co., Ltd., priority 2002, dated 2006).
